Laboratory results taken from patent US8940768B2, “Antifungal triazole derivatives” (Daewoong Pharmaceutical Co., Ltd., priority 2010, dated 2015).
Values after ≈ are worked out from the molar mass of the structure shown.

What was measured:
Type in all cases: cell-based
Candida albicans = assay: in vitro antifungal activity (MIC80), Candida albicans; settings: 80% growth inhibition vs negative control, RPMI 1640, read 24 hrs after application, Table 1, read-out: Antifungal Activity (MIC80) C. albicans
Description: (§1) The compounds of the present invention were evaluated for inhibitory activity against yeast molds including Candida albicans, Candida glabrata, Candida krusei, Candida tropicalis, Candida parapsilosis, and Cryptococcus neoformans, and filamentous fungi including Aspergillus fumigatus, Trichophyton mentagrophytes (obtained from KCTC (Korean Collection for Type Cultures), and Trichophyton rubrum (obtained from KCCM (Korean Culture Center of Microorganisms). All the strains, but Trichophyton mentagrophytes and Trichophyton rubrum, were purchased from the ATCC (American Type Culture Collection).
(§2) Of the strains used in this test, Candida albicans, Candida glabrata, Candida krusei, Candida tropicalis, Candida parapsilosis, Trichophyton mentagrophytes and Trichophyton rubrum were inoculated into sabouraud dextrose agars (Difco, BD-0109), Cryptococcus neoformans into a yeast mold agar (YM agar, Difco, 271210), and Aspergillus fumigatus into a malt extract agar (Difco, 211220), before incubation at 35° C. for two to ten days.
(§3) From the agars on which the yeast molds were grown, single colonies were picked up, and each was sufficiently suspended in 5 mL of already prepared, 0.85% sterile saline. After correction of the absorbance to 0.108 at 530 nm, each of the suspensions was diluted to a ratio of 1:50 in an RPMI (Roswell park memorial institute) 1640 medium and then to a ratio of 1:20 to prepare an inoculum having a cell density of from 1.0×10^3 to 5.0×10^3CFU/mL. The cell density was adjusted into […]˜5.0×10^4 CFU/mL for Aspergillus fumigates and 0.4×10^4˜5.0×10^4 CFU/mL for both Trichophyton mentagrophytes and Trichophyton rubrum.
(§4) The antifungal agent samples were prepared by diluting the active compounds in an RPMI 1640 medium to a serial density of from 0.0156 to 32 μg/mL. In this context, dimethylsulfoxide (DMSO) was used as an excipient at a final concentration of 1% (v/v). The serial dilutions were aliquoted at a volume of 0.1 mL and applied to 0.1 mL of the aliquots of each inoculum, followed by incubation.
(§5) With the naked eyes, an observation was made of all of the yeast molds, but Cryptococcus neoformans 24 hrs after the application, Cryptococcus neoformans and Aspergillus fumigatus 48 hrs after the application, and Trichophyton mentagrophytes and Trichophyton rubrum five days after the application to examine whether the fungi grew or not. In addition, Alamarblue™ as used to determine the concentrations of the compounds of the present invention at which the growth of the microorganisms was 80% inhibited compared to that of the negative control. All experiments were performed in duplicate for each of the test concentration groups.

Candida glabrata = assay: in vitro antifungal activity (MIC80), Candida glabrata; settings: Nakaseomyces glabratus, 24 h, read-out: Antifungal Activity (MIC80) C. grabrata
Description: as §1, §2, §3, §4, §5

Candida krusei = assay: in vitro antifungal activity (MIC80), Candida krusei; settings: Pichia kudriavzevii; 80% growth inhibition vs negative control; RPMI 1640; read 24 hrs after application; read-out: Antifungal Activity (MIC80) C. krusei
Description: as §1, §2, §3, §4, §5

Candida tropicalis = assay: in vitro antifungal activity (MIC80), Candida tropicalis; settings: 80% growth inhibition vs negative control, RPMI 1640, read 24 hrs after application, read-out: Antifungal Activity (MIC80) C. tropicalis
Description: as §1, §2, §3, §4, §5

Candida parapsilosis = assay: in vitro antifungal activity (MIC80), Candida parapsilosis; settings: Lodderomyces parapsilosis; 80% growth inhibition vs negative control; RPMI 1640; read 24 hrs after application; read-out: Antifungal Activity (MIC80) C. parapsilosis
Description: as §1, §2, §3, §4, §5

Cryptococcus neoformans = assay: in vitro antifungal activity (MIC80), Cryptococcus neoformans; settings: 80% growth inhibition vs negative control, RPMI 1640, read 48 hrs after application
Description: as §1, §2, §3, §4, §5

Aspergillus fumigatus = assay: in vitro antifungal activity (MIC80), Aspergillus fumigatus; settings: 80% growth inhibition vs negative control, RPMI 1640, read 48 hrs after application
Description: as §1, §2, §3, §4, §5

[1] = system: Trichophyton mentagrophytes; assay: in vitro antifungal activity (MIC80), Trichophyton mentagrophytes; settings: 120 h, 80% growth inhibition vs negative control, RPMI 1640, read five days after application
Description: as §1, §2, §3, §4, §5

Trichophyton rubrum = assay: in vitro antifungal activity (MIC80), Trichophyton rubrum; settings: 120 h, 80% growth inhibition vs negative control, RPMI 1640, read five days after application
Description: as §1, §2, §3, §4, §5

| Compound | MIC80 (Candida albicans) [µg/mL] | MIC80 (Candida glabrata) [µg/mL] | MIC80 (Candida krusei) [µg/mL] | MIC80 (Candida tropicalis) [µg/mL] | MIC80 (Candida parapsilosis) [µg/mL] | MIC80 (Cryptococcus neoformans) [µg/mL] | MIC80 (Aspergillus fumigatus) [µg/mL] | MIC80 [1] [µg/mL] | MIC80 (Trichophyton rubrum) [µg/mL] |
| --- | --- | --- | --- | --- | --- | --- | --- | --- | --- |
| C[C@@H](N1CCC(Oc2ncc(Br)cn2)CC1)[C@](O)(Cn1cncn1)c1ccc(F)cc1F [Example 32, (2R,3R)-3-(4-((5-bromopyrimidin-2-yl)oxy)piperidin-1-yl)-2-(2,4-difluorophenyl)-1-(1H-1,2,4-triazol-1-yl)butan-2-ol] | ≤ 0.015 | 0.125 (≈ 0.245 µM) | 0.125 (≈ 0.245 µM) | ≤ 0.015 | ≤ 0.015 | ≤ 0.015 | ≤ 0.125 | ≤ 0.125 | 0.031 (≈ 0.0609 µM) |
| C[C@@H](N1CCC(Nc2ccc(Cl)cc2)CC1)[C@](O)(Cn1cncn1)c1ccc(F)cc1F [Example 34, (2R,3R)-3-(4-((4-chlorophenyl)amino)piperidin-1-yl)-2-(2,4-difluorophenyl)-1-(1H-1,2,4-triazol-1-yl)butan-2-ol] | ≤ 0.015 | 0.125 (≈ 0.271 µM) | 0.031 (≈ 0.0671 µM) | ≤ 0.015 | ≤ 0.015 | ≤ 0.015 | ≤ 0.125 | ≤ 0.125 | ≤ 0.125 |
| C[C@@H](N1CCC(Nc2ccc(Cl)cn2)CC1)[C@](O)(Cn1cncn1)c1ccc(F)cc1F [Example 59, (2R,3R)-3-(4-((5-chloropyridin-2-yl)-amino)piperidin-1-yl)-2-(2,4-difluorophenyl)-1-(1H-1,2,4-triazol-1-yl)butan-2-ol] | ≤ 0.015 | 0.25 (≈ 0.54 µM) | 0.062 (≈ 0.134 µM) | 0.125 (≈ 0.27 µM) | ≤ 0.015 | ≤ 0.015 | 0.25 (≈ 0.54 µM) | ≤ 0.125 | ≤ 0.125 |
| C[C@@H](NC1CCN(c2ccc(F)cc2)CC1)[C@](O)(Cn1cncn1)c1ccc(F)cc1F [Example 125, (2R,3R)-2-(2,4-difluorophenyl)-3-((1-(4-fluorophenyl)piperidin-4-yl)amino)-1-(1H-1,2,4-triazol-1-yl)butan-2-ol] | ≤ 0.015 | 0.125 (≈ 0.281 µM) | 0.062 (≈ 0.139 µM) | 0.031 (≈ 0.0696 µM) | ≤ 0.015 | ≤ 0.015 | 0.25 (≈ 0.561 µM) | ≤ 0.125 | ≤ 0.125 |
| C[C@@H](NC1CCN(c2ccc(Cl)cc2)CC1)[C@](O)(Cn1cncn1)c1ccc(F)cc1F [Example 128, (2R,3R)-3-((1-(4-chlorophenyl)piperidin-4-yl)amino)-2-(2,4-difluorophenyl)-1-(1H-1,2,4-triazol-1-yl)butan-2-ol] | ≤ 0.015 | 0.062 (≈ 0.134 µM) | ≤ 0.015 | 0.031 (≈ 0.0671 µM) | 0.031 (≈ 0.0671 µM) | ≤ 0.015 | 0.25 (≈ 0.541 µM) | 0.015 (≈ 0.0325 µM) | ≤ 0.125 |
| C[C@@H](NC1CCN(c2ncc(Br)cn2)CC1)[C@](O)(Cn1cncn1)c1ccc(F)cc1F [Example 153, (2R,3R)-3-((1-(5-bromopyrimidin-2-yl)piperidin-4-yl)amino)-2-(2,4-difluorophenyl)-1-(1H-1,2,4-triazol-1-yl)butan-2-ol] | ≤ 0.015 | 0.125 (≈ 0.246 µM) | 0.125 (≈ 0.246 µM) | 0.25 (≈ 0.492 µM) | ≤ 0.015 | ≤ 0.015 | 1 (≈ 1.97 µM) | 0.5 (≈ 0.984 µM) | ≤ 0.125 |
| OC(Cn1cncn1)(Cn1cncn1)c1ccc(F)cc1F [Fluconazole, reference compound] | 4 (≈ 13.1 µM) | > 32 | 4 (≈ 13.1 µM) | > 32 | > 32 | 0.5 (≈ 1.63 µM) | > 128 | 16 (≈ 52.2 µM) | 4 (≈ 13.1 µM) |
| C[C@@H](c1ncncc1F)[C@](O)(Cn1cncn1)c1ccc(F)cc1F [Voriconazole, reference compound] | 0.031 (≈ 0.0887 µM) | 2 (≈ 5.73 µM) | 0.5 (≈ 1.43 µM) | 0.25 (≈ 0.716 µM) | 0.5 (≈ 1.43 µM) | 0.25 (≈ 0.716 µM) | 0.25 (≈ 0.716 µM) | 0.125 (≈ 0.358 µM) | ≤ 0.125 |
